According to publication PMC5218480 (PLoS ONE, 2017):

Tested on: MV-4-11 cells
Assay: Gene expression microarray analysis (Affymetrix PrimeView) and GSEA
Assay type: cell-based, human
Set-up: RFU PODN (11730768_x_at) / Fold change /veh PODN (11730768_x_at) / RFU LINC00158 (11744669_a_at) / Fold change /veh LINC00158 (11744669_a_at) / RFU DUSP10 (11751237_a_at) / Fold change /veh DUSP10 (11751237_a_at) / RFU ID3 (11757404_x_at) / Fold change /veh ID3 (11757404_x_at) / RFU PLEKHG5 (11737974_s_at) / Fold change /veh PLEKHG5 (11737974_s_at) / RFU LRRC4B (11730491_at) / Fold change /veh LRRC4B (11730491_at) / RFU GIMAP4 (11747438_a_at) / Fold change /veh GIMAP4 (11747438_a_at) / RFU KRT8 (11758183_x_at) / Fold change /veh KRT8 (11758183_x_at) / RFU CNN1 (11734310_a_at) / Fold change /veh CNN1 (11734310_a_at) / RFU VPS37D (11726825_at) / Fold change /veh VPS37D (11726825_at) / RFU C10orf10 (11716522_x_at) / Fold change /veh C10orf10 (11716522_x_at) / RFU KIR2DL2 /// KIR2DL4 /// KIR2DL5A /// KIR2DL5B /// KIR2DS1 /// KIR2DS2 /// KIR2DS3 /// KIR2DS4 /// KIR3DL3 /// KIR3DL3 /// KIR3DS1 (11738374_at) / Fold change /veh KIR2DL2 /// KIR2DL4 /// KIR2DL5A /// KIR2DL5B /// KIR2DS1 /// KIR2DS2 /// KIR2DS3 /// KIR2DS4 /// KIR3DL3 /// KIR3DL3 /// KIR3DS1 (11738374_at) / RFU C1QL1 (11718748_at) / Fold change /veh C1QL1 (11718748_at) / RFU TMPRSS4 (11747572_a_at) / Fold change /veh TMPRSS4 (11747572_a_at) / RFU HAMP (11756126_x_at) / Fold change /veh HAMP (11756126_x_at) / RFU RNFT2 (11725882_a_at) / Fold change /veh RNFT2 (11725882_a_at) / RFU NR4A2 (11747474_a_at) / Fold change /veh NR4A2 (11747474_a_at) / RFU ABCC12 (11746883_a_at) / Fold change /veh ABCC12 (11746883_a_at) / RFU TMEM136 (11760407_x_at) / Fold change /veh TMEM136 (11760407_x_at) / RFU CLDN22 /// WWC2 (11732394_at) / Fold change /veh CLDN22 /// WWC2 (11732394_at) / RFU HLA-DPB1 (11760878_x_at) / Fold change /veh HLA-DPB1 (11760878_x_at) / RFU SPINT1 (11716480_a_at) / Fold change /veh SPINT1 (11716480_a_at) / RFU GAP43 (11754022_s_at) / Fold change /veh GAP43 (11754022_s_at) / RFU A4GNT (11735810_at) / Fold change /veh A4GNT (11735810_at) / RFU PRB3 (11715151_x_at) / Fold change /veh PRB3 (11715151_x_at) / RFU TUBB4B (11761932_at) / Fold change /veh TUBB4B (11761932_at) / RFU CAPN14 (11732068_a_at) / Fold change /veh CAPN14 (11732068_a_at) / RFU TMCC2 (11721928_a_at) / Fold change /veh TMCC2 (11721928_a_at) / RFU IRGQ (11745062_a_at) / Fold change /veh IRGQ (11745062_a_at) / RFU FAM174B (11720279_a_at) / Fold change /veh FAM174B (11720279_a_at) / RFU TMPRSS4 (11748680_a_at) / Fold change /veh TMPRSS4 (11748680_a_at) / RFU FAM212B (11763350_a_at) / Fold change /veh FAM212B (11763350_a_at) / RFU PLEKHG5 (11743358_a_at) / Fold change /veh PLEKHG5 (11743358_a_at) / RFU ZSCAN30 (11745921_a_at) / Fold change /veh ZSCAN30 (11745921_a_at) / RFU CMKLR1 (11741424_a_at) / Fold change /veh CMKLR1 (11741424_a_at) / RFU LOC101060620 /// MAPK8IP1 (11723275_at) / Fold change /veh LOC101060620 /// MAPK8IP1 (11723275_at) / RFU SPTSSB (11747773_x_at) / Fold change /veh SPTSSB (11747773_x_at) / RFU PRSS12 (11739890_at) / Fold change /veh PRSS12 (11739890_at) / RFU BIN1 (11741810_x_at) / Fold change /veh BIN1 (11741810_x_at) / RFU WNT11 (11732464_a_at) / Fold change /veh WNT11 (11732464_a_at) / RFU C10orf10 (11716521_a_at) / Fold change /veh C10orf10 (11716521_a_at) / RFU C5orf56 (11738089_at) / Fold change /veh C5orf56 (11738089_at) / RFU CYB561 (11721691_x_at) / Fold change /veh CYB561 (11721691_x_at) / RFU ANKRD19P (11752326_a_at) / Fold change /veh ANKRD19P (11752326_a_at) / RFU OR2T12 /// OR2T33 /// OR2T8 (11738714_s_at) / Fold change /veh OR2T12 /// OR2T33 /// OR2T8 (11738714_s_at) / RFU VCAN (11748164_a_at) / Fold change /veh VCAN (11748164_a_at) / RFU JSRP1 (11732532_at) / Fold change /veh JSRP1 (11732532_at) / RFU KRTAP10-11 (11738290_x_at) / Fold change /veh KRTAP10-11 (11738290_x_at) / RFU MYO3A (11730013_a_at) / Fold change /veh MYO3A (11730013_a_at) / RFU EBF3 (11725865_a_at) / Fold change /veh EBF3 (11725865_a_at) / RFU CAMK2N1 (11719241_x_at) / Fold change /veh CAMK2N1 (11719241_x_at) / RFU C5orf56 (11738088_a_at) / Fold change /veh C5orf56 (11738088_a_at) / RFU OLFML3 (11715873_a_at) / Fold change /veh OLFML3 (11715873_a_at) / RFU LOC100653217 /// NTM (11731650_a_at) / Fold change /veh LOC100653217 /// NTM (11731650_a_at) / RFU MAPK11 (11762145_a_at) / Fold change /veh MAPK11 (11762145_a_at) / RFU FIZ1 (11724087_x_at) / Fold change /veh FIZ1 (11724087_x_at) / RFU OASL (11726364_x_at) / Fold change /veh OASL (11726364_x_at) / RFU SOX15 (11748057_x_at) / Fold change /veh SOX15 (11748057_x_at) / RFU CD79A (11719716_a_at) / Fold change /veh CD79A (11719716_a_at) / RFU HIST1H1D (11736915_at) / Fold change /veh HIST1H1D (11736915_at) / RFU CASKIN2 (11723855_a_at) / Fold change /veh CASKIN2 (11723855_a_at) / RFU LOC730098 (11760151_x_at) / Fold change /veh LOC730098 (11760151_x_at) / RFU OR4N2 (11742367_at) / Fold change /veh OR4N2 (11742367_at) / RFU PRRT2 (11749266_a_at) / Fold change /veh PRRT2 (11749266_a_at) / RFU SNX32 (11753110_a_at) / Fold change /veh SNX32 (11753110_a_at) / RFU CDHR5 (11726645_a_at) / Fold change /veh CDHR5 (11726645_a_at) / RFU RCAN1 (11760418_a_at) / Fold change /veh RCAN1 (11760418_a_at) / RFU FAM167A (11723789_a_at) / Fold change /veh FAM167A (11723789_a_at) / RFU FAM26E (11764081_at) / Fold change /veh FAM26E (11764081_at) / RFU ISYNA1 (11749810_s_at) / Fold change /veh ISYNA1 (11749810_s_at) / RFU ACY1 (11761880_at) / Fold change /veh ACY1 (11761880_at) / RFU 11764098_at / Fold change /veh 11764098_at / RFU SAMD14 (11745864_x_at) / Fold change /veh SAMD14 (11745864_x_at) / RFU NPB (11741838_a_at) / Fold change /veh NPB (11741838_a_at) / RFU TMPRSS6 (11731388_a_at) / Fold change /veh TMPRSS6 (11731388_a_at) / RFU KRTAP10-2 (11738614_at) / Fold change /veh KRTAP10-2 (11738614_at) / RFU ARHGAP8 /// PRR5-ARHGAP8 (11727945_x_at) / Fold change /veh ARHGAP8 /// PRR5-ARHGAP8 (11727945_x_at) / RFU KRTAP5-7 /// NADSYN1 (11734609_at) / Fold change /veh KRTAP5-7 /// NADSYN1 (11734609_at) / RFU RASL12 (11751679_a_at) / Fold change /veh RASL12 (11751679_a_at) / RFU CDKN2B (11736163_a_at) / Fold change /veh CDKN2B (11736163_a_at) / RFU PRF1 (11729649_at) / Fold change /veh PRF1 (11729649_at) / RFU, ZNF638 /// ZNF638-IT1 / Fold change vs veh, ZNF638 /// ZNF638-IT1 / RFU, PANK3 / Fold change vs veh, PANK3 / RFU, SH3YL1 / Fold change vs veh, SH3YL1 / RFU, ZEB2 / Fold change vs veh, ZEB2 / RFU, NRIP1 / Fold change vs veh, NRIP1 / RFU, PTTG1IP / Fold change vs veh, PTTG1IP / RFU, CAPN2 / Fold change vs veh, CAPN2 / RFU, MED14 / Fold change vs veh, MED14 / RFU, SNORA58 / Fold change vs veh, SNORA58 / RFU, C1orf63 / Fold change vs veh, C1orf63 / RFU, LRRFIP1 / Fold change vs veh, LRRFIP1 / RFU, NDUFAF7 / Fold change vs veh, NDUFAF7 / RFU, SLC12A2 / Fold change vs veh, SLC12A2 / RFU, IBTK / Fold change vs veh, IBTK / RFU, ESF1 / Fold change vs veh, ESF1 / Fold change vs veh, TMEM50B / RFU, TAOK1 / Fold change vs veh, TAOK1 / RFU, ACBD3 / Fold change vs veh, ACBD3 / RFU, TMA16 / Fold change vs veh, TMA16 / RFU, RWDD3 / Fold change vs veh, RWDD3 / RFU, BCAT1 / Fold change vs veh, BCAT1 / RFU, EDEM3 / Fold change vs veh, EDEM3 / RFU, TMEM33 / Fold change vs veh, TMEM33 / RFU, WDR75 / Fold change vs veh, WDR75 / RFU, AHCTF1 / Fold change vs veh, AHCTF1 / RFU, TFRC / Fold change vs veh, TFRC / RFU, ZDHHC17 / Fold change vs veh, ZDHHC17 / RFU, NOM1 / Fold change vs veh, NOM1 / RFU, ARL8B / Fold change vs veh, ARL8B / RFU, ZBTB11 / Fold change vs veh, ZBTB11 / RFU, TAMM41 / Fold change vs veh, TAMM41 / RFU, KIAA1704 /// LOC100996395 / Fold change vs veh, KIAA1704 /// LOC100996395 / RFU, ING1 / Fold change vs veh, ING1 / RFU, TRMT61B / Fold change vs veh, TRMT61B / RFU, FUBP3 / Fold change vs veh, FUBP3 / RFU, TP53 / Fold change vs veh, TP53 / RFU, TNKS2 / Fold change vs veh, TNKS2 / RFU, ZFP14 / Fold change vs veh, ZFP14 / RFU, ACTR2 / Fold change vs veh, ACTR2 / RFU, PPP3R1 / Fold change vs veh, PPP3R1 / RFU, PIK3R1 / Fold change vs veh, PIK3R1 / RFU, HNRNPA1 / Fold change vs veh, HNRNPA1 / RFU, RNF170 / Fold change vs veh, RNF170 / RFU, ZNF28 / Fold change vs veh, ZNF28 / RFU, RNGTT / Fold change vs veh, RNGTT / RFU, OGT / Fold change vs veh, OGT / RFU, BRD1 / Fold change vs veh, BRD1 / RFU, MARS / Fold change vs veh, MARS / RFU, ZNF655 / Fold change vs veh, ZNF655 / RFU, FAHD1 / Fold change vs veh, FAHD1 / RFU, BDP1 / Fold change vs veh, BDP1 / RFU, LRRCC1 / Fold change vs veh, LRRCC1 / RFU, ARID1A / Fold change vs veh, ARID1A / RFU, ZNF146 / Fold change vs veh, ZNF146 / RFU, ZNF330 / Fold change vs veh, ZNF330 / RFU, GPN3 / Fold change vs veh, GPN3 / RFU, C9orf123 / Fold change vs veh, C9orf123 / RFU, N4BP2L2 / Fold change vs veh, N4BP2L2 / RFU, ARFIP1 / Fold change vs veh, ARFIP1 / RFU, FAM179B / Fold change vs veh, FAM179B / RFU, BCL10 / Fold change vs veh, BCL10 / RFU, UHRF1BP1L / Fold change vs veh, UHRF1BP1L / RFU, BET1 / Fold change vs veh, BET1 / RFU, CNOT2 / Fold change vs veh, CNOT2 / RFU, ZNF268 / Fold change vs veh, ZNF268 / Fold change vs veh, ZNF507 / RFU, DGCR2 / Fold change vs veh, DGCR2 / RFU, WDSUB1 / Fold change vs veh, WDSUB1 / Fold change vs veh, HSP90B1 /// MIR3652 / RFU, ADSS / Fold change vs veh, ADSS / RFU, GK / Fold change vs veh, GK / RFU, ZNF148 / Fold change vs veh, ZNF148 / RFU, TAF9 / Fold change vs veh, TAF9 / RFU, SLC1A5 / Fold change vs veh, SLC1A5 / RFU, SLMO2 / Fold change vs veh, SLMO2 / RFU, ABCC4 / Fold change vs veh, ABCC4 / RFU, LOC101060439 /// RAP1B / Fold change vs veh, LOC101060439 /// RAP1B / RFU, RFX7 / Fold change vs veh, RFX7 / RFU, GTPBP10 / Fold change vs veh, GTPBP10 / RFU, CNEP1R1 / Fold change vs veh, CNEP1R1 / RFU, BIVM-ERCC5 /// ERCC5 / Fold change vs veh, BIVM-ERCC5 /// ERCC5 / RFU, ILF3 / Fold change vs veh, ILF3 / RFU 11762660_at / Fold change /veh 11762660_at / RFU VCAN (11757783_s_at) / Fold change /veh VCAN (11757783_s_at) / RFU DDX43 (11728927_at) / Fold change /veh DDX43 (11728927_at) / RFU KRT8 (11758188_x_at) / Fold change /veh KRT8 (11758188_x_at) / RFU NKD1 (11759106_at) / Fold change /veh NKD1 (11759106_at) / RFU SRD5A1 (11742802_a_at) / Fold change /veh SRD5A1 (11742802_a_at) / RFU TPSAB1 /// TPSB2 (11721975_s_at) / Fold change /veh TPSAB1 /// TPSB2 (11721975_s_at) / RFU GSTM3 (11746129_a_at) / Fold change /veh GSTM3 (11746129_a_at) / RFU IL23R (11737362_x_at) / Fold change /veh IL23R (11737362_x_at) / RFU TMEM51 (11727254_a_at) / Fold change /veh TMEM51 (11727254_a_at) / RFU PIWIL2 (11732686_x_at) / Fold change /veh PIWIL2 (11732686_x_at) / RFU ORM1 (11744905_x_at) / Fold change /veh ORM1 (11744905_x_at) / RFU CCDC152 (11743942_at) / Fold change /veh CCDC152 (11743942_at) / RFU ECM1 (11717891_a_at) / Fold change /veh ECM1 (11717891_a_at) / RFU IL23R (11748794_a_at) / Fold change /veh IL23R (11748794_a_at) / RFU TNFAIP8L3 (11732012_x_at) / Fold change /veh TNFAIP8L3 (11732012_x_at) / RFU MBOAT4 (11741988_at) / Fold change /veh MBOAT4 (11741988_at) / RFU 11764193_at / Fold change /veh 11764193_at / RFU TMEM53 (11763286_at) / Fold change /veh TMEM53 (11763286_at) / RFU MAGEB2 (11727129_at) / Fold change /veh MAGEB2 (11727129_at) / RFU TMEM200A (11744735_a_at) / Fold change /veh TMEM200A (11744735_a_at) / RFU CCDC152 (11751479_a_at) / Fold change /veh CCDC152 (11751479_a_at) / RFU FAM211A (11726209_a_at) / Fold change /veh FAM211A (11726209_a_at) / RFU RGS16 (11746705_a_at) / Fold change /veh RGS16 (11746705_a_at) / RFU VCAN (11755009_s_at) / Fold change /veh VCAN (11755009_s_at) / RFU RHOB (11743442_s_at) / Fold change /veh RHOB (11743442_s_at) / RFU RGS16 (11720943_a_at) / Fold change /veh RGS16 (11720943_a_at) / RFU RGS16 (11720944_at) / Fold change /veh RGS16 (11720944_at) / RFU, VPS4B / Fold change vs veh, VPS4B / RFU, CREB1 / Fold change vs veh, CREB1 / RFU, DNAJC13 / Fold change vs veh, DNAJC13 / RFU, GNAQ / Fold change vs veh, GNAQ / RFU, CDK5R1 / Fold change vs veh, CDK5R1 / RFU, ZRANB3 / Fold change vs veh, ZRANB3 / RFU, CUL4A / Fold change vs veh, CUL4A / RFU, CCNY / Fold change vs veh, CCNY / RFU, UFL1 / Fold change vs veh, UFL1 / RFU, COG3 / Fold change vs veh, COG3 / RFU, DIAPH2 / Fold change vs veh, DIAPH2 / RFU, SKA2 / Fold change vs veh, SKA2 / RFU, AFF3 / Fold change vs veh, AFF3 / RFU, LMF1 / Fold change vs veh, LMF1 / RFU, IPO11 / Fold change vs veh, IPO11 / RFU, DFFB / Fold change vs veh, DFFB / RFU, FOXP1 / Fold change vs veh, FOXP1 / RFU, CARD8 / Fold change vs veh, CARD8 / RFU, STRN3 / Fold change vs veh, STRN3 / RFU, ADK / Fold change vs veh, ADK / RFU, RASSF2 / Fold change vs veh, RASSF2 / RFU, WIPF1 / Fold change vs veh, WIPF1 / RFU, LARP1B / Fold change vs veh, LARP1B / RFU, RASA1 / Fold change vs veh, RASA1 / RFU, RB1 / Fold change vs veh, RB1 / RFU, PPFIA1 / Fold change vs veh, PPFIA1 / RFU, MAT2A / Fold change vs veh, MAT2A / RFU, CCT5 / Fold change vs veh, CCT5 / RFU, WDR92 / Fold change vs veh, WDR92 / RFU, CUX1 / Fold change vs veh, CUX1 / RFU, TTC7A / Fold change vs veh, TTC7A / RFU, TMEM135 / Fold change vs veh, TMEM135 / RFU, DEPTOR / Fold change vs veh, DEPTOR / RFU, CPM / Fold change vs veh, CPM / RFU, DNAJB6 / Fold change vs veh, DNAJB6 / RFU, CACNA2D3 / Fold change vs veh, CACNA2D3 / RFU, DTX4 / Fold change vs veh, DTX4 / RFU, TFCP2 / Fold change vs veh, TFCP2 / RFU, GMCL1 /// GMCL1P1 / Fold change vs veh, GMCL1 /// GMCL1P1 / RFU, AEBP2 / Fold change vs veh, AEBP2 / RFU, SNHG1 /// SNORD22 /// SNORD25 /// SNORD26 /// SNORD27 /// SNORD28 /// SNORD29 /// SNORD31 / Fold change vs veh, SNHG1 /// SNORD22 /// SNORD25 /// SNORD26 /// SNORD27 /// SNORD28 /// SNORD29 /// SNORD31 / Fold change (Aza/veh), C12orf56 (ProbeSet 11735607_a_at) / Fold change (ACY-1035/veh), C12orf56 (ProbeSet 11735607_a_at) / Fold change (Aza/veh), FGFR1OP (ProbeSet 11751329_s_at) / Fold change (ACY-1035/veh), FGFR1OP (ProbeSet 11751329_s_at) / Fold change (Aza/veh), VPS36 (ProbeSet 11739960_a_at) / Fold change (ACY-1035/veh), VPS36 (ProbeSet 11739960_a_at) / RFU SYPL1 (11715823_x_at) / Fold change /veh SYPL1 (11715823_x_at) / RFU IGFBP7 (11715501_s_at) / Fold change /veh IGFBP7 (11715501_s_at) / RFU REEP3 (11722064_at) / Fold change /veh REEP3 (11722064_at) / RFU IGLL1 (11728026_x_at) / Fold change /veh IGLL1 (11728026_x_at): dose or concentration left out as unconfirmed
Settings: ProbeSet 11734782_x_at; LIST D

## Nc1ccc(-c2cccs2)cc1NC(=O)c1ccc2c(c1)cc(C1CC1)n2CCN1CCOCC1 [ACY-1035]
  Fold change vs veh, WDR92: 0.89
